Results from patent US5705333A, “Peptide-based nucleic acid mimics(PENAMS)” (The Regents of The University of California, priority 1994, dated 1998).

System: dT10
Assay: Thermal denaturation (UV absorbance melting curve, Tm) of hybrids with complementary oligonucleotide dT10
Format: binding
Details: for Tm (°C.) Me2 AsO2 Na: 10 mM sodium cacodylate buffer; for Tm (°C.) Nax PO4: phosphate buffer
Excerpt: Thermal denaturation of an ordered, native structure of a nucleic acid disrupts the base-pair stacking and, as a result, the UV absorbance increases. The change in UV absorbance, known as […], is a measure of base-pairing and base-stacking between the two complementary strands. The UV absorbance profile as a function of temperature is called a melting curve and the midpoint of this curve is defined as the melting temperature, Tm, at which 50% of the double strand is dissociated into its two single strands. Thus, the measurement of UV absorbance melting curves provides qualitative and quantitative structural information about the nucleic acid bound to its complementary ligand. Tm also depends on the concentration of the oligonucleotide and the properties of the solvent (buffer: pH, ionic strength, etc.).
Binding studies were carried out by hybridizing the isolated PENAM described above to its complementary oligonucleotide "dT10 " followed by thermal denaturation and measurement of UV absorbance as a function of temperature. The synthetic oligodeoxynucleotide (ODN) dT10 and its complementary oligodeoxynucleotide dA10 were used as the reference nucleic acids. The samples prepared in phosphate buffer (Nax PO4) can precipitate magnesium phosphate at high temperature during the thermal denaturation cycle. This problem was readily avoided by repeating the experiment in 10 mM sodium cacodylate buffer (Me2 AsO2 Na) instead of the phosphate buffer.

[1] = dT10 + 2KpA10 Km, stoichiometry 1:0:2
[2] = dT10 + KpA10 Km, stoichiometry 1:0:1
[3] = dT10 + dA10 + 2KpA10 Km, stoichiometry 1:1:2
[4] = dT10 + dA10 + KpA10 Km, stoichiometry 1:1:1
[5] = thermal denaturation, summary of Table 1

H-Lys-{(D/L)-(AdhAla)10 }-Lys-NH2 [KpA10 Km]
Tm (°C.) Me2 AsO2 Na (2dT10 + KpA10 Km, stoichiometry 2:0:1): 32.28 °C | Tm (°C.) Me2 AsO2 Na [1]: 32.57 °C | Tm (°C.) Nax PO4 [1]: 30.8 °C | Tm (°C.) Me2 AsO2 Na [2]: 31.00 °C | Tm (°C.) Nax PO4 [2]: 31.26 °C | Tm (°C.) Me2 AsO2 Na [3]: 32.26 °C | Tm (°C.) Nax PO4 [3]: 30.07 °C | Tm (°C.) Me2 AsO2 Na [4]: 31.052 °C | Tm (°C.) Nax PO4 [4]: 31.41 °C | Binding to complementary nucleic acid strand [5]: binds to its complementary nucleic acid strand | Melting temperature compared with reference ODN dT10:dA10 [5]: melt at an even higher temperature than the reference ODN
